Where two headings read alike, the source gives them in different places.
Legend:
[1] = system: Astroglial cells derived from the mouse forebrain; assay: Synthesis-stimulating activity on NGF (NGF level in culture medium by enzyme immunoassay); assay type: cell-based; conditions: Mus musculus, 24 h; for fold induction at 2 µg/mL / fold induction at 50 µg/mL: read-out: Synthesis-Stimulating Activity on NGF
Experimental: The activity of accelerating secretion of NGF was evaluated by the following method.
Each compound shown in Table 1 was dissolved in dimethylsulfoxide (DMSO) to adjust the concentration in the range of 2 mg/ml to 10 mg/ml.
Astroglial cells derived from the mouse forebrain (cells that synthesize and secrete NGF)
Astroglial cells obtained from the mouse forebrain were cultured into 8 x 10⁵ cells/ml in Dulbecco's modified Eagle's medium obtained from Gibco, glucose-rich, containing 20% fetal calf serum, 100 units/ml of penicillin and 100 µg/ml of streptomycin. A 0.1 ml/well aliquot was inoculated on a 96-well plate obtained from Falcon and having an area of 0.32 cm² per well and cultured at 37°C in an atmosphere of 5% CO₂. The culture medium was removed 72 hours later and instead, a 0.1 ml/well aliquot of fresh Dulbecco's modified Eagle's medium containing 0.5% bovine albumin powders obtained from Armour, 100 units/ml of penicillin and 100 µg/ml of streptomycin was supplemented to the system followed by culturing at 37°C in 5% CO₂. The above medium containing the compound each having various concentrations was exchanged 72 hours later. For the purpose of comparison, the medium which contains only DMSO was also prepared (control).
The synthesis-stimulating activity on NGF by the compound of the present invention is shown in terms of a ratio when the NGF level in the control containing only DMSO was made 1.0.

[2] = system: Cerebral cortical neuronal cells from an 18-day-old rat embryo; assay: Test on neurotrophic activity (living cells counted by fluorescein diacetate fluorescence, with or without hypoxic load); assay type: cell-based
Experimental: The neurotrophic activity was determined by the following method. Each compound was dissolved in DMSO to adjust the concentration in the range of 2 mg/ml to 10 mg/ml. Cerebral cortical neuronal cells from an 18-day-old rat embryo […] After 24 hours of incubation, the culture medium was removed and a 0.5 ml/well aliquot of a serum-free fresh DF medium containing the respective compounds having various concentrations, 5 µg/ml of transferrin, 5 µg/ml of insulin and 20 pmoles/ml of progesterone was supplemented to the system. For the purpose of comparison, the medium containing only DMSO was added was also prepared. At this stage, the two same plates were used. After 72 hours of incubation in various medium, hypoxia was loaded on one plate by reducing the concentration of oxygen to the minimum concentration of 1% using a N₂-O₂-CO₂ incubator (manufactured by Tabai, Model BNP-100) and culturing for 4 hours under the conditions. Another plate was cultured in an atmosphere of 5% CO₂ and 95% air, without hypoxic load. After the incubation was continued for further 48 hours, living cells were counted. The culture medium was removed and fluorescein diacetate (FDA) reagent was reacted. After washing with phosphate buffer, pH 7.4, the fluorescent intensity (E x 485/Em 530) was measured by CytoFlour^TM 2300, manufactured by Millipore.

[3] = no hypoxic load, ratio of fluorescent intensity to DMSO control = 1.0, read-out: Neurotrophic Activity No Hypoxic Load
[4] = 4 h, hypoxic load (1% oxygen, 4 hours), ratio of fluorescent intensity to DMSO control = 1.0, read-out: Neurotrophic Activity Hypoxic Load
[5] = 2 µg/ml, ratio to DMSO control = 1.0, 24 hours
[6] = 50 µg/ml, ratio to DMSO control = 1.0, 24 hours

Compound	viability at 2 µg/mL [2, 3] [%]	viability at 10 µg/mL [2, 3] [%]	viability at 2 µg/mL [2, 4] [%]	viability at 10 µg/mL [2, 4] [%]	fold induction at 20 µg/mL ([1]; ratio to DMSO control = 1.0)	fold induction at 100 µg/mL ([1]; ratio to DMSO control = 1.0)	fold induction at 2 µg/mL [1, 5]	fold induction at 10 µg/mL ([1]; ratio to DMSO control = 1.0)	fold induction at 50 µg/mL [1, 6]	further results
c1ccc(-c2cccc(-c3ccccn3)n2)nc1 [Compound 1]	270	320	140	220						fold induction at 1 µg/mL ([1]; 1 µg/ml, ratio to DMSO control = 1.0): 2.3; fold induction at 5 µg/mL ([1]; ratio to DMSO control = 1.0): 3.5
c1ccc(-c2cc(-c3ccccn3)nc(-c3ccccn3)c2)cc1 [Compound 2, 4'-Phenyl-2,2':6',2''-terpyridine]	180	130	170	50	2.6	2.2				
Cc1ccccc1-c1cc(-c2ccccn2)nc(-c2ccccn2)c1 [Compound 3, 4'-(2-Methylphenyl)-2,2':6',2''-terpyridine]	240	150	280	140			1.5	2.9		
Cc1cccc(-c2cc(-c3ccccn3)nc(-c3ccccn3)c2)c1 [Compound 4, 4'-(3-Methylphenyl)-2,2':6',2''-terpyridine]	170		180				1.8	1.3	1.2	
CCc1ccc(-c2cc(-c3ccccn3)nc(-c3ccccn3)c2)cc1 [Compound 7, 4'-(4-Ethylphenyl)-2,2':6',2''-terpyridine]							2.9	1	1.2	
CC(C)c1ccc(-c2cc(-c3ccccn3)nc(-c3ccccn3)c2)cc1 [Compound 8, 4'-(4-Isopropylphenyl)-2,2':6',2''-terpyridine]							1.7	3.2	2.4	
Clc1ccc(-c2cc(-c3ccccn3)nc(-c3ccccn3)c2)cc1 [Compound 11, 4'-(4-Chlorophenyl)-2,2':6',2''-terpyridine]	170	130	160	140					2.2	fold induction at 5 µg/mL ([1]; ratio to DMSO control = 1.0): 4.7; fold induction at 17 µg/mL ([1]; 17 µg/ml, ratio to DMSO control = 1.0): 3.4
Oc1ccccc1-c1cc(-c2ccccn2)nc(-c2ccccn2)c1 [Compound 12, 2-(2,2':6',2''-Terpyridin-4'-yl)phenol]					3.7	3				
COc1ccc(-c2cc(-c3ccccn3)nc(-c3ccccn3)c2)cc1 [Compound 13, 4'-(4-Methoxyphenyl)-2,2':6',2''-terpyridine]	180		70		1.7	1.8				
CCOc1ccc(-c2cc(-c3ccccn3)nc(-c3ccccn3)c2)cc1 [Compound 14, 4'-(4-Ethoxyphenyl)-2,2':6',2''-terpyridine]							2.1	4.8	2.9	
OCCOc1ccc(-c2cc(-c3ccccn3)nc(-c3ccccn3)c2)cc1 [Compound 15, 2-[4-(2,2':6',2''-Terpyridin-4'-yl)phenoxy]ethanol]					1.7	4.2				
O=[N+]([O-])c1cccc(-c2cc(-c3ccccn3)nc(-c3ccccn3)c2)c1 [Compound 17, 4'-(3-Nitrophenyl)-2,2':6',2''-terpyridine]					1	2.8				
Nc1cccc(-c2cc(-c3ccccn3)nc(-c3ccccn3)c2)c1 [Compound 18, 4'-(3-Aminophenyl)-2,2':6',2''-terpyridine]	110		140			4.6		5.7		fold induction at 30 µg/mL ([1]; ratio to DMSO control = 1.0): 2
O=C(O)c1ccc(-c2cc(-c3ccccn3)nc(-c3ccccn3)c2)cc1 [Compound 19, 4-(2,2':6',2''-Terpyridin-4'-yl)benzoic acid]							2.4	2.4	3.6	
BrCc1ccc(-c2cc(-c3ccccn3)nc(-c3ccccn3)c2)cc1 [Compound 21, 4'-(4-Bromomethylphenyl)-2,2':6',2''-terpyridine]	140		200		2.7	5.2				
c1ccc(-c2cc(-c3ccc(Cn4cccc4)cc3)cc(-c3ccccn3)n2)nc1 [Compound 22, 4'-[4-(1-pyrrorylmethyl)phenyl]-2,2':6',2''-terpyridine]	120	170	100	180			1.7	1.1		
C[N+](C)(C)Cc1ccc(-c2cc(-c3ccccn3)nc(-c3ccccn3)c2)cc1 [Compound 23, N,N,N-Trimethyl-N-[4-(2,2':6',2''-terpyridin-4'-yl)phenylmethyl]ammonium bromide]	250	130	300	160		1.3		3.2		fold induction at 30 µg/mL ([1]; ratio to DMSO control = 1.0): 5.6
CCCCCCCCCCCC[N+](C)(C)Cc1ccc(-c2cc(-c3ccccn3)nc(-c3ccccn3)c2)cc1 [Compound 24, N-Dodecyl-N,N-dimethyl-N-[4-(2,2':6',2''-terpyridin-4'-yl)phenylmethyl]ammonium bromide]	200		190							fold induction at 2 µg/mL [1]: 2.1; fold induction at 50 µg/mL [1]: 1
c1cc[n+](Cc2ccc(-c3cc(-c4ccccn4)nc(-c4ccccn4)c3)cc2)cc1 [Compound 25, 1-[4-(2,2':6',2''-Terpyridin-4'-yl)phenylmethyl]pyridinium bromide]	140		110				1.2	1.1	2.9	
CCCCCCCCCc1cc[n+](Cc2ccc(-c3cc(-c4ccccn4)nc(-c4ccccn4)c3)cc2)cc1 [Compound 26, 4-Nonyl-1-[4-(2,2':6',2''-terpyridin-4'-yl)phenylmethyl]pyridinium bromide]	160	140	140	130	3	3				
CCCCCCCCCCCCCCCCCc1cc[n+](Cc2ccc(-c3cc(-c4ccccn4)nc(-c4ccccn4)c3)cc2)cc1 [Compound 27, 4-Heptadecyl-1-[4-(2,2':6',2''-terpyridin-4'-yl)phenylmethyl]pyridinium bromide]	200	190	150	200	1	1.2				
CCCCCCCCC(CCCCCCCC)c1cc[n+](Cc2ccc(-c3cc(-c4ccccn4)nc(-c4ccccn4)c3)cc2)cc1 [Compound 28, 4-(1-Octylnonyl)-1-[4-(2,2':6',2''-terpyridin-4'-yl)phenylmethyl]pyridinium bromide]	260	130	310	380	3.6	2.5				
